Patent US8173689B2 (Novartis AG, priority 2006, dated 2012)
Like-named read-outs stand apart in the source and are kept apart here.

Key:
[1] = target: T1, cytoplasmic domain of the human CSF-1R (Homo sapiens, UniProt P07333); assay: In vitro kinase assay for colony stimulating factor-1 receptor (AlphaScreen); format: biochemical; settings: read-out: CSF-1R percent inhibition
T1 construct: Recombinant protein corresponding to the cytoplasmic domain of the human CSF-1R; purchased Invitrogen Corporation, Carlsbad, Calif; PV3249
T1 sequence (P07333 539-972 limits assumed): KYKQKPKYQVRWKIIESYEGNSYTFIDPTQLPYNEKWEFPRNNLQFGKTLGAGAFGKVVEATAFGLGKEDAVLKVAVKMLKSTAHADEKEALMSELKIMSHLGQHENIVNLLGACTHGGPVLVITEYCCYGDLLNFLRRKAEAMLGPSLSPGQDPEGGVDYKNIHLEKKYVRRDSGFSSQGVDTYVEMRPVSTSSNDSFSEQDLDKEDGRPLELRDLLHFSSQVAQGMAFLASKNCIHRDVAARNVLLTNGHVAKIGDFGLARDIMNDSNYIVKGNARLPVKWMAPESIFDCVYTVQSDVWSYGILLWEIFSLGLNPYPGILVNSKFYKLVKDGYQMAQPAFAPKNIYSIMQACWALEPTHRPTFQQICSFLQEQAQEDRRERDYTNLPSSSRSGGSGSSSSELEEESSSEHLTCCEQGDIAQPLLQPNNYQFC
Outline: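 Test compounds, serially diluted threefold starting at 25 μM, were mixed with Hepes buffer (pH 7.5, Mg2+/Mn2+, DTT, BSA, Tween 80) containing 1 μM ATP. Recombinant kinase was present at 4 nM. After stopping, beads were added and plates were read the next day by AlphaScreen.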

kinase domain of PDGFRβ = target: T2, kinase domain of PDGFRβ (Homo sapiens, UniProt P09619); assay: Inhibition of PDGFRb kinase signaling in an in vitro biochemical assay (alphascreen); settings: read-out: PDGFRβ percent inhibition
T2 construct: The kinase domain of PDGFRβ was assayed in 50 mM Hepes; purchased Invitrogen P3082
T2 sequence (P09619 600-962 limits assumed): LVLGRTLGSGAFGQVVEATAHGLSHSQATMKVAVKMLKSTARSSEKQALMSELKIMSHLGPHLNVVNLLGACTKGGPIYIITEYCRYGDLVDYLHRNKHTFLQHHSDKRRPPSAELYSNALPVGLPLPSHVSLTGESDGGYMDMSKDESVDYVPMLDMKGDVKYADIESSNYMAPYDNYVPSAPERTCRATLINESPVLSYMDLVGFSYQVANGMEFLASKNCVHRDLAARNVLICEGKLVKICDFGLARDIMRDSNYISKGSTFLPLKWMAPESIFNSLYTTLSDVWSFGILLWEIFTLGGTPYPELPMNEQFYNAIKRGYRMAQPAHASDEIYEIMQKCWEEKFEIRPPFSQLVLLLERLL

[2] = system: MNFS60 (murine AML cells); assay: Cell viability assay in MCSF dependent MNFS60 cells (Cell Titer Glo); format: cell-based; settings: Mus musculus, tested at about 1 μM, read-out: M-NFS-60 CP percent inhibition
Outline: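 Three-fold serial compound dilutions, prepared in DMSO at 500× the final level, were applied alongside MCSF (final 10 ng/ml). Incubation lasted 72 hrs (37° C., 5% CO2) before CellTiter-Glo addition. Triplicate points were curve-fitted for EC50.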

kinase domain of cKIT = target: T3, kinase domain of cKIT (Homo sapiens, UniProt P10721); assay: Inhibition of cKIT kinase signaling in an in vitro biochemical assay (alphascreen); settings: read-out: cKit percent inhibition
T3 construct: The kinase domain of cKIT was assayed in 50 mM Hepes; purchased Upstate 14-559
T3 sequence (P10721 589-937 limits assumed): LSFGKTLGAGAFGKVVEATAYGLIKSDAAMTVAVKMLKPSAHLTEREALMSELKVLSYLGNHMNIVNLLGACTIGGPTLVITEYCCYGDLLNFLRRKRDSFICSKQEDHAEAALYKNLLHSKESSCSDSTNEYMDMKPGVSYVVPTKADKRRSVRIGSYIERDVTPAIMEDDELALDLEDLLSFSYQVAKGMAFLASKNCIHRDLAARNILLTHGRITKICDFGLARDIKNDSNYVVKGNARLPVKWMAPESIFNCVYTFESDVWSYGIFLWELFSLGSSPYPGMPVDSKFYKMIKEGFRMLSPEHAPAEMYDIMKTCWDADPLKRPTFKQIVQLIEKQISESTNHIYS

[3] = tested at about 1 μM, compounds of Table 3

inhibition at 1 µM ([1]; tested at about 1 μM) [%]	inhibition at 1 µM (kinase domain of PDGFRβ; tested at about 1 μM) [%]	inhibition at 1 µM (kinase domain of cKIT; tested at about 1 μM) [%]	inhibition at 1 µM [1, 3] [%]	inhibition at 1 µM (kinase domain of PDGFRβ; [3]) [%]	inhibition at 1 µM (kinase domain of cKIT; [3]) [%]	Compound	inhibition at 1 µM ([2]; compounds of Table 3) [%]	also measured
			97	4	25	C[C@H](Nc1nc2ccc(Oc3ccnc(Cl)c3)cc2s1)C1CCCCC1 [Example 264, (S)-6-(2-chloropyridin-4-yloxy)-N-(1-cyclohexylethyl)benzo[d]thiazol-2-amine]	3	
100	73	77				CC[C@H](C)[C@@H](CO)Nc1nc2ccc(Oc3ccnc(-c4cnn(C)c4)c3)cc2s1 [Example 349, (2S,3S)-3-methyl-2-(6-(2-(1-methyl-1H-pyrazol-4-yl)pyridin-4-yloxy)benzo[d]thiazol-2-ylamino)pentan-1-ol]		inhibition at 1 µM ([2]; MCSF dependent MNFS60 cells): 100%
99	18	13				CN(C)CCNC(=O)c1cc(Oc2ccc3nc(NCC4CCCCC4)sc3c2)ccn1 [Compound 160, 4-(2-(cyclohexylmethyl-amino)benzothiazol-6-yloxy)-N-(2-(dimethylamino)-ethyl)pyridine-2-carboxamide]		inhibition at 1 µM ([2]; MNFS60 cells): 30%
			100	5	26	C[C@H](Nc1nc2ccc(Oc3ccnc(-c4ccnn4C)c3)cc2s1)C1CCCCC1 [Example 277, (S)-N-(1-cyclohexylethyl)-6-(2-(1-methyl-1H-pyrazol-5-yl)pyridin-4-yloxy)benzo[d]thiazol-2-amine]	24	
95	0	14				CNC(=O)c1cc(Oc2ccc3nc(NCC4CCCN(C(=O)NC(C)C)C4)sc3c2)ccn1 (centres unmarked) [Example 337, 4-(2-((1-(isopropylcarbamoyl)piper-idin-3-yl)methylamino)benzo[d]thiazol-6-yloxy)-N-methylpicolinamide]		inhibition at 1 µM ([2]; MCSF dependent MNFS60 cells): 19%
			100	69	100	C[C@@H](Nc1nc2ccc(Oc3ccnc4ccccc34)cc2s1)C1CCCCC1 [Example 243, (R)-N-(1-cyclohexylethyl)-6-(quinolin-4-yloxy)benzo[d]thiazol-2-amine]	76	
			100	50	85	Fc1cc2nccc(Oc3ccc4nc(NCC5CCCCC5)sc4c3)c2cc1F [Example 211]	23	
100	12	26				CCNc1cc(Oc2ccc3nc(N[C@@H]4CCCC[C@H]4O)sc3c2)ccn1 [Example 369, (1R,2R)-2-(6-(2-(ethylamino)pyridin-4-yloxy)benzo[d]thiazol-2-ylamino)cyclohexanol]		inhibition at 1 µM ([2]; MCSF dependent MNFS60 cells): 44%
			100	0	26	O[C@@H]1CCCC[C@H]1Nc1nc2ccc(Oc3ccncc3Br)cc2s1 [Example 224, (1R,2R)-2-(6-(3-bromopyridin-4-yloxy)benzo[d]thiazol-2-ylamino)cyclohexanol]	33	
100	0	0				NC(=O)c1cc(Oc2ccc3nc(NCC4CCCCC4)oc3c2)ccn1 [Compound 69, 4-[2-(Cyclohexylmethyl-amino)-benzooxazol-6-yloxy]-pyridine-2-carboxylic acid amide]		inhibition at 1 µM ([2]; MNFS60 cells): 0%
99	0	6				CNC(=O)c1cc(Oc2ccc3nc(NCC4CCCN(C(C)=O)C4)sc3c2)ccn1 (centres unmarked) [Example 306, 4-(2-((1-acetylpiperidin-3-yl)methylamino)benzo[d]thiazol-6-yloxy)-N-methylpicolinamide]		inhibition at 1 µM ([2]; MCSF dependent MNFS60 cells): 48%
			100	23	31	Cn1cc(-c2cnccc2Oc2ccc3nc(N[C@@H]4CCCC[C@H]4O)sc3c2)cn1 [Example 189]	26	
			98	19	22	O[C@@H]1CCCC[C@H]1Nc1nc2ccc(Oc3ccncc3-c3cccnc3)cc2s1 [Example 190]	5	

The next lines start with the molecule.

Compound	inhibition at 1 µM ([1]; tested at about 1 μM) [%]	inhibition at 1 µM (kinase domain of PDGFRβ; tested at about 1 μM) [%]	inhibition at 1 µM (kinase domain of cKIT; tested at about 1 μM) [%]	inhibition at 1 µM [1, 3] [%]	inhibition at 1 µM (kinase domain of PDGFRβ; [3]) [%]	inhibition at 1 µM (kinase domain of cKIT; [3]) [%]	inhibition at 1 µM ([2]; compounds of Table 3) [%]	also measured
CNC(=O)c1cc(Oc2ccc3nc(NCc4ccccc4Br)oc3c2)ccn1 [Compound 72, 4-[2-(2-Bromo-benzylamino)-benzooxazol-6-yloxy]-pyridine-2-carboxylic acid methylamide]	100	0	65					inhibition at 1 µM ([2]; MNFS60 cells): 48%
CNC(=O)c1cc(Oc2ccc3nc(NCCc4cccnc4)sc3c2)ccn1 [Example 315, N-methyl-4-(2-(2-(pyridin-3-yl)ethylamino)benzo[d]thiazol-6-yloxy)picolinamide]	98	0	17					inhibition at 1 µM ([2]; MCSF dependent MNFS60 cells): 27%
COC[C@H](Nc1nc2ccc(Oc3ccnc4ccccc34)cc2s1)[C@@H](O)c1ccccc1 [Example 233, (1S,2S)-3-methoxy-1-phenyl-2-(6-(quinolin-4-yloxy)benzo[d]thiazol-2-ylamino)propan-1-ol]				100	84	85	59	
CNC(=O)c1cc(Oc2cc(C)c3nc(NCC4CCCCC4)sc3c2)ccn1 [Example 374, 4-(2-(cyclohexylmethylamino)-4-methylbenzo[d]thiazol-6-yloxy)-N-methylpicolinamide]	99	41	98					inhibition at 1 µM ([2]; MCSF dependent MNFS60 cells): 3%
CC(C)C[C@@H](CO)Nc1nc2ccc(Oc3ccnc4ccccc34)cc2s1 [Example 238, (S)-4-methyl-2-(6-(quinolin-4-yloxy)benzo[d]thiazol-2-ylamino)pentan-1-ol]				100	90	100	100	
O[C@@H]1CCCC[C@H]1Nc1nc2ccc(Oc3ccncc3-c3cn[nH]c3)cc2s1 [Example 188]							38	inhibition at 1 µM [1]: 100%; inhibition at 1 µM (kinase domain of PDGFRβ): 35%; inhibition at 1 µM (kinase domain of cKIT): 55%
CNC(=O)c1cc(Oc2ccc3nc(NCC4COc5ccccc5O4)oc3c2)ccn1 (centres unmarked) [Compound 119, 4-{2-[(2,3-Dihydro-benzo-[1,4]dioxin-2-ylmethyl)-amino]-benzooxazol-6-yloxy}-pyridine-2-carboxylic acid methylamide]	99	32	18					inhibition at 1 µM ([2]; MNFS60 cells): 13%
CNC(=O)c1cc(Oc2ccc3nc(NCc4ccc(F)cc4F)oc3c2)ccn1 [Compound 71, 4-[2-(2,4-Difluoro-benzylamino)-benzooxazol-6-yloxy]-pyridine-2-carboxylic acid methylamide]	100	0	27					inhibition at 1 µM ([2]; MNFS60 cells): 11%
CNC(=O)c1cc(Oc2ccc3nc(NC4CCC4)oc3c2)ccn1 [Compound 22, 4-(2-Cyclobutylamino-benzooxazol-6-yloxy)-pyridine-2-carboxylic acid methylamide]	21	0		100	21	6	36	
CCOC(=O)C1(CNc2nc3ccc(Oc4ccnc(C(=O)NC)c4)cc3o2)CCCCC1 [Compound 75, 1-{[6-(2-Methylcarbamoyl-pyridin-4-yloxy)-benzooxazol-2-ylamino]-methyl}-cyclohexane-carboxylic acid ethyl ester]	99	0	7					inhibition at 1 µM ([2]; MNFS60 cells): 0%
COc1ccccc1CNc1nc2ccc(Oc3ccnc4ccccc34)cc2s1 [Example 257, N-(2-methoxybenzyl)-6-(quinolin-4-yloxy)benzo[d]thiazol-2-amine]				100	11	100	100	
